The text below walks through data of US5434155A, “Quinoline derivative fumarates” (priority 1992, dated 1995).

Molecules are shown by their SMILES. ≈ marks a conversion by molar mass, not a printed value. Read-outs that look alike come from different tables or passages of the source.

By IC50 is commonly meant the concentration that inhibits the measured activity by half. By solubility is commonly meant how much of the substance goes into solution per volume. Low values mean a poorly soluble substance, high ones a readily soluble substance.

Data set [1] in a line: Oral absorbability test in mice (drug concentration in plasma). The arrangement: species or system 7-Week-old female CDF1 mice. Conditions: mouse, in vivo. Here is the method:
7-Week-old female CDF1 mice were fasted one night before the administration of the test drugs. The drugs were suspended in an aqueous 0.1% TWEEN 80 solution for administration and were forcefully administered in an amount of 100 mg/kg (for the compound No. 2 of Example 1-(c)) and 109 mg/kg (for the compound No. 4 of Comparative Example 1) so as to get the equivalent molarity using a probe for oral administration. Three animals were used for each test group. Blood samples were taken 4 times; 0.5, 1.0, 2.0 and 4.0 hours after the administration. Blood samples were taken by cardiocentesis under anesthesia with chloroform using a heparin-treated disposable injection syringe, Each blood was centrifuged at 4° C. at 6000 rpm for 10 minutes to obtain plasma. Drug concentrations in plasma were measured using HPLC and then calculated from a calibration curve for a standard sample, Results are shown in the following Tables.

Data set [2] concerns Vincristine-resistant mouse leukemia cells, P388/VCR. Briefly: Carcinostatic-effect-stimulating activity (IC50 of vincristine on vincristine-resistant cells). In kind it is cell-based. The following applies: 72 h, read-out: IC50 of vincristine. As to the method: Carcinostatic-effect-stimulating activity
Vincristine-resistant mouse leukemia cells, P388/VCR, were suspended at a concentration of 2×10^4 cells/ml in an RPMI-1640 medium solution containing […]. 2 ml of the cancer cell suspension per tube (12×75 mm) were inoculated and incubated at 37° C. in a 5% CO2 atmosphere. After 6 hours, vincristine and the compound No. 2 of Example 1-(c) at a concentration of 0.3, 1 or 3 microgram/ml and the incubation was continued at 37° C. under a 5% CO2 atmosphere for 72 hours. The cell culture was added to 9.5 ml of ISOTON II, the number of cells was counted using a call counter and then 50% growth inhibiting concentrations of vincristine IC50 (ng/ml) were calculated.

A short description of the next data set: physchem. In kind it is physicochemical. Conditions: water. As to the method:
Solubility in water was measured according to the Pharmacopoeia Japan.

Data set [3] can be described thus: Oral absorbability in dogs (drug concentration in plasma). Format: in vivo, Male beagles (dog). Conditions: dog. As to the method:
Male beagles for experimental use were fasted one night before the administration of the test drugs. The drugs were suspended in a 0.1% TWEEN 80--0.1M NaCl--50 mM phosphate buffer solution for administration. All the drugs were forcefully administered in an amount of 50 mg/kg using an oral probe for dogs. Three animals were used for each test group. Blood samples were taken 9 times; 0.25, 0.5, 1, 1.5, 2, 4, 6, 9 and 24 hours after the administration. Blood samples of 5 ml were taken at each sampling time using a heparin-treated disposable injection syringe. Each blood was centrifuged at 3000 rpm for 15 minutes to obtain plasma. Drug concentrations in plasma were measured using HPLC and then calculated from a calibration curve for a standard sample.

As to `O=C(C(c1ccccc1)c1ccccc1)N1CCN(CC(O)COc2cccc3ncccc23)CC1.O=C(O)CC(O)C(=O)O` (stereo not drawn) [compound No. 4, 5-[3-{4-(2,2-diphenylacetyl)piperazin-1-yl)-2-hydroxypropoxy]quinoline malate], the concentration at 0.5 h in data set [1] (female CDF1 mice, oral 109 mg/kg (equivalent molarity), 0.5 hr, read-out: Concentration in plasma, Average of 3 mice) stood at 14300 ng/mL. Also, in data set [1] (female CDF1 mice, oral 109 mg/kg (equivalent molarity), 1.0 hr, read-out: Concentration in plasma, Average of 3 mice), the concentration at 1 h is 11400 ng/mL. The concentration at 2 h in data set [1] (female CDF1 mice, oral 109 mg/kg (equivalent molarity), 2.0 hr, read-out: Concentration in plasma, Average of 3 mice) stood at 11900 ng/mL. Also, in data set [1] (female CDF1 mice, oral 109 mg/kg (equivalent molarity), 4.0 hr, read-out: Concentration in plasma, Average of 3 mice), the concentration at 4 h was 5990 ng/mL.

In the case of `O=C(C(c1ccccc1)c1ccccc1)N1CCN(CC(O)COc2cccc3ncccc23)CC1.O=C(O)/C=C/C(=O)O` (stereo not drawn) [compound No. 2, 5-[3-{4-(2,2-diphenylacetyl)piperazin-1-yl}-2-hydroxypropoxy]quinoline fumarate], the IC50 in data set [2] (vincristine with compound at 0.3 microgram/ml) amounted to 0.0569 µg/mL; in data set [2] (vincristine with compound at 1 microgram/ml), 0.022 µg/mL; in data set [2] (vincristine with compound at 3 microgram/ml), 0.00412 µg/mL. Further, the concentration at 0.5 h is 18000 ng/mL in data set [1] (po, 100 mg/kg) and 14700 ng/mL in data set [3] (plasma, male beagles, oral 50 mg/kg, 0.5 hr, read-out: Concentration in plasma, Average). In addition, the concentration at 1 h is 21800 ng/mL in data set [1] (po, 100 mg/kg) and 13200 ng/mL in data set [3] (plasma, male beagles, oral 50 mg/kg, 1 hr, read-out: Concentration in plasma, Average). Further, the concentration at 2 h in data set [1] (po, 100 mg/kg) turned out to be 16000 ng/mL; in data set [3] (plasma, male beagles, oral 50 mg/kg, 2 hr, read-out: Concentration in plasma, Average), 10500 ng/mL. The concentration at 4 h in data set [1] (po, 100 mg/kg) turned out to be 13700 ng/mL; in data set [3] (plasma, male beagles, oral 50 mg/kg, 4 hr, read-out: Concentration in plasma, Average) it was 6760 ng/mL. In the data set “physchem”, this molecule displayed a solubility of 1400 µg/mL. The concentration at 1.5 h in data set [3] (plasma, male beagles, oral 50 mg/kg, 1.5 hr, read-out: Concentration in plasma, Average) was 12700 ng/mL. In addition, the concentration at 6 h in data set [3] (plasma, male beagles, oral 50 mg/kg, 6 hr, read-out: Concentration in plasma, Average) stood at 3700 ng/mL. For the same molecule, the concentration at 9 h in data set [3] (plasma, male beagles, oral 50 mg/kg, 9 hr, read-out: Concentration in plasma, Average) is 1210 ng/mL. Further, in data set [3] (plasma, male beagles, oral 50 mg/kg, 24 hr), the concentration at 24 h amounted to 30 ng/mL.

Consider `O=C(C(c1ccccc1)c1ccccc1)N1CCN(CC(O)COc2cccc3ncccc23)CC1` (stereo not drawn) [compound No. 1, 5-[3-{4-(2,2diphenylacetyl)piperazin-1-yl}-2-hydroxypropoxy]quinoline], for which, in the data set “physchem”, the solubility was less than 1000 µg/mL. In addition, in data set [3] (in vivo, po, 50 mg/kg), the concentration at 0.25 h came out at 2460 ng/mL, the concentration at 0.5 h is 3370 ng/mL, the concentration at 1 h came out at 4530 ng/mL and the concentration at 1.5 h was found to be 4350 ng/mL. In data set [3] (in vivo, po, 50 mg/kg), this molecule returned a concentration at 2 h of 4180 ng/mL, a concentration at 4 h of 2430 ng/mL, a concentration at 6 h of 1620 ng/mL and a concentration at 9 h of 440 ng/mL.

For `CC[C@]1(O)C[C@H]2CN(CCc3c([nH]c4ccccc34)[C@@](C(=O)OC)(c3cc4c(cc3OC)N(C=O)[C@H]3[C@@](O)(C(=O)OC)[C@H](OC(C)=O)[C@]5(CC)C=CCN6CC[C@]43[C@@H]65)C2)C1` [vincristine, reference compound], in data set [2], the IC50 amounted to 0.142 µg/mL (≈ 0.172 µM).
